Square brackets hold non-standard residues; d marks the D form. Peptide text beside a SMILES is read from it. * marks the point of attachment. Alaψ(CH2NMeCH2CH2OH) = C[C@@H](CN(C)CCO)N*; Cha = N[C@@H](CC1CCCCC1)C(=O)O; Lauroyl = CCCCCCCCCCCC(=O)*; Decanoyl = CCCCCCCCCC(=O)*; Octanoyl = CCCCCCCC(=O)*; Hexanoyl = CCCCCC(=O)*; Aib = CC(C)(N)C(=O)O; Propionyl = CCC(=O)*; Butyryl = CCCC(=O)*
Columns and labels:
PANC-1 cells [1] = experiment: PrestoBlue cell viability assay, comparative cytotoxicity assay under 'low glucose'; assay type: cell-based, human; details: 24 h exposure; for IC50: 'low glucose' DMEM (no glucose added), 457 pM to 9 µM, three independent experiments each in technical duplicate; for AUC, PrestoBlue, PANC-1 / Emax @ 9 µM, PrestoBlue, PANC-1: 'low glucose', three independent experiments in duplicate; for AUC, PrestoBlue, PANC-1: area under viability-concentration curve, baseline y = 0; for Emax @ 9 µM, PrestoBlue, PANC-1: response (percent viability) at highest concentration 9 µM
Description: (§1) Endpoint fluorescence was quantified as described above.

BxPC-3 cells [2] = experiment: as above; assay type: cell-based, human; details: 24 h exposure; for IC50: 'low glucose' RPMI 1640 (no glucose added), 50.8 pM to 1 µM, three independent experiments each in technical duplicate; for AUC, PrestoBlue, BxPC-3 / Emax @ 1 µM, PrestoBlue, BxPC-3: 'low glucose', three independent experiments in duplicate; for AUC, PrestoBlue, BxPC-3: area under viability-concentration curve, baseline y = 0; for Emax @ 1 µM, PrestoBlue, BxPC-3: response (percent viability) at highest concentration 1 µM
Description: as §1

PANC-1 cells [3] = experiment: CyQUANT Direct cell proliferation assay, comparative cytotoxicity assay under 'low glucose'; assay type: cell-based, human; details: 24 h exposure; for IC50: 'low glucose' DMEM (no glucose added), 457 pM to 9 µM, three independent experiments each in technical duplicate; for AUC, CyQUANT Direct, PANC-1 / Emax @ 9 µM, CyQUANT Direct, PANC-1: 'low glucose', three independent experiments in duplicate; for AUC, CyQUANT Direct, PANC-1: area under viability-concentration curve, baseline y = 0; for Emax @ 9 µM, CyQUANT Direct, PANC-1: response (percent viability) at highest concentration 9 µM
Description: as §1

BxPC-3 cells [4] = experiment: as above; assay type: cell-based, human; details: 24 h exposure; for IC50: 'low glucose' RPMI 1640 (no glucose added), 50.8 pM to 1 µM, three independent experiments each in technical duplicate; for AUC, CyQUANT Direct, BxPC-3 / Emax @ 1 µM, CyQUANT Direct, BxPC-3: 'low glucose', three independent experiments in duplicate; for AUC, CyQUANT Direct, BxPC-3: area under viability-concentration curve, baseline y = 0; for Emax @ 1 µM, CyQUANT Direct, BxPC-3: response (percent viability) at highest concentration 1 µM
Description: as §1

PANC-1 cells [5] = details: 24 h exposure, medium with or without 5 mM glucose, up to 9 µM
Experimental: (§2) Cells were seeded at a density of 25,000 cells/well (BxPC-3) and 30,000 cells/well (PANC-1) in Nunc MicroWell 96-Well Black Optical-Bottom Plates with Polymer Base (total volume: 100 µL). Cells were first incubated overnight at 37 °C, 5% CO2 to permit adherence, after which the medium in each well was aspirated, briefly washed once with 100 µL/well of PBS (pH 7.4) and replaced with 100 µL of either RPMI 1640 (BxPC-3, #11879020) or DMEM (PANC-1, #11966025) supplemented with or without 5 mM glucose to create the ‘normal glucose’ and ‘low glucose’ media, respectively. This 5 mM glucose concentration was selected to reflect the physiological concentration of glucose in plasma. Each well was then exposed to the peptides in duplicate at a concentration range of 50.8 pM to 1 µM (BxPC-3) or 457 pM to 9 µM (PANC-1) for 24 h (threefold serial dilution in the corresponding ‘normal glucose’ or ‘low glucose’ media, ten steps). Endpoint fluorescence was quantified as described above.
(§3) Blank correction (wells containing medium only) was first performed on the raw fluorescence–concentration data from the plate reader. Cell viability was then calculated as a percentage by normalizing to the fluorescence of the wells containing the lowest drug concentration (50.8 pM for BxPC-3, 457 pM for PANC-1). The resulting data from three independent experiments (each in technical duplicate) was then plotted on GraphPad Prism 9 and analyzed using the built-in ‘[Inhibitor] vs. response—Variable slope (four parameters)’ equation.

BxPC-3 cells [6] = details: 24 h exposure, medium with or without 5 mM glucose, up to 1 µM
Experimental: as §2, §3

BxPC-3 cells [7] = experiment: Initial cytotoxicity assay (PrestoBlue and CyQUANT Direct Confirmation Assay), 25 mM glucose; assay type: cell-based, human; details: 3-day (72 h) incubation, RPMI-1640 with 25 mM glucose, up to highest concentration tested of 1 µM, both viability assays
Experimental: The CyQUANT™ Direct Cell Proliferation Assay was subsequently performed by mixing the CyQUANT™ Direct nucleic acid stain, CyQUANT™ Direct background suppressor I, and PBS (pH 7.4) as per the vendor instructions, then adding 100 µL of this mixture into each well. The plate was returned into the incubator for a further 1 h, and the endpoint fluorescence bottom-read at the Ex/Em wavelength of 485/538 nm on the SpectraMax iD3 plate reader. Blank wells (medium only) and two negative controls—(1) cells + medium, (2) cells + medium + 0.3% v/v DMSO (equivalent to 1 µM peptide)—were set up in the plate for each experiment.

Row | Compound | IC50 (PANC-1 cells [1]) [µM] | AUC, PrestoBlue, PANC-1 (PANC-1 cells [1]) | Emax @ 9 µM, PrestoBlue, PANC-1 (PANC-1 cells [1]) [%] | IC50 (BxPC-3 cells [2]) [µM] | AUC, PrestoBlue, BxPC-3 (BxPC-3 cells [2]) | Emax @ 1 µM, PrestoBlue, BxPC-3 (BxPC-3 cells [2]) [%] | IC50 (PANC-1 cells [3]) [µM] | AUC, CyQUANT Direct, PANC-1 (PANC-1 cells [3]) | Emax @ 9 µM, CyQUANT Direct, PANC-1 (PANC-1 cells [3]) [%] | IC50 (BxPC-3 cells [4]) [µM] | AUC, CyQUANT Direct, BxPC-3 (BxPC-3 cells [4]) | Emax @ 1 µM, CyQUANT Direct, BxPC-3 (BxPC-3 cells [4]) [%] | Cytotoxicity against PANC-1 under 'low glucose' vs 'normal glucose' (in words) (PANC-1 cells [5]) | Cytotoxicity against BxPC-3 under 'low glucose' vs 'normal glucose' (in words) (BxPC-3 cells [6]) | Inhibition of proliferation of BxPC-3 cells (in words) (BxPC-3 cells [7])
1 | CC[C@H](C)[C@H](NC(=O)C(C)(C)NC(=O)C(C)(C)NC(=O)[C@H](CC1CCCCC1)NC(=O)[C@@H]1CCCN1)C(=O)N[C@H](C(=O)NC(C)(C)C(=O)NC(C)(C)C(=O)N[C@@H](C)CN(C)CCO)C(C)C [(12)] (H-P[Cha][Aib][Aib]IV[Aib][Aib]-{Alaψ(CH2NMeCH2CH2OH)}) | > 9 | 90.6 ×10^−5 | 101.0 | > 1 | 10.2 ×10^−5 | 104.0 | > 9 | 92.6 ×10^−5 | 107.0 | > 1 | 11 ×10^−5 | 115.0 | inactivity | inactivity | 
2 | CC[C@H](C)[C@H](NC(=O)C(C)(C)NC(=O)C(C)(C)NC(=O)[C@H](CC1CCCCC1)NC(=O)[C@@H]1CCCN1C(C)=O)C(=O)N[C@H](C(=O)NC(C)(C)C(=O)NC(C)(C)C(=O)N[C@@H](C)CN(C)CCO)C(C)C [(13)] (Ac-P[Cha][Aib][Aib]IV[Aib][Aib]-{Alaψ(CH2NMeCH2CH2OH)}) | 6 | 58.9 ×10^−5 | 34.6 | > 1 | 9.5 ×10^−5 | 94.0 | 8.5 | 67.8 ×10^−5 | 48.1 | > 1 | 11 ×10^−5 | 111.3 | sufficient to induce cytotoxic effects |  | 
3 | CCC(=O)N1CCC[C@H]1C(=O)N[C@@H](CC1CCCCC1)C(=O)NC(C)(C)C(=O)NC(C)(C)C(=O)N[C@H](C(=O)N[C@H](C(=O)NC(C)(C)C(=O)NC(C)(C)C(=O)N[C@@H](C)CN(C)CCO)C(C)C)[C@@H](C)CC [(14)] (Propionyl-P[Cha][Aib][Aib]IV[Aib][Aib]-{Alaψ(CH2NMeCH2CH2OH)}) | 1.8 | 38.4 ×10^−5 | 31.5 | 0.6 | 6.8 ×10^−5 | 25.1 | 7 | 51.8 ×10^−5 | 51.5 | 0.6 | 6.8 ×10^−5 | 27.3 |  |  | 
4 | CCCC(=O)N1CCC[C@H]1C(=O)N[C@@H](CC1CCCCC1)C(=O)NC(C)(C)C(=O)NC(C)(C)C(=O)N[C@H](C(=O)N[C@H](C(=O)NC(C)(C)C(=O)NC(C)(C)C(=O)N[C@@H](C)CN(C)CCO)C(C)C)[C@@H](C)CC [(15)] (Butyryl-P[Cha][Aib][Aib]IV[Aib][Aib]-{Alaψ(CH2NMeCH2CH2OH)}) | 0.9 | 33.6 ×10^−5 | 31.0 | 0.5 | 5.8 ×10^−5 | 16.3 | 4.8 | 50.3 ×10^−5 | 53.7 | 0.5 | 5.8 ×10^−5 | 33.8 |  |  | 
5 | CCCCCC(=O)N1CCC[C@H]1C(=O)N[C@@H](CC1CCCCC1)C(=O)NC(C)(C)C(=O)NC(C)(C)C(=O)N[C@H](C(=O)N[C@H](C(=O)NC(C)(C)C(=O)NC(C)(C)C(=O)N[C@@H](C)CN(C)CCO)C(C)C)[C@@H](C)CC [(16)] (Hexanoyl-P[Cha][Aib][Aib]IV[Aib][Aib]-{Alaψ(CH2NMeCH2CH2OH)}) | 0.5 | 24.3 ×10^−5 | 7.7 | 0.4 | 5.0 ×10^−5 | 7.1 | 2 | 42.1 ×10^−5 | 41.0 | 0.4 | 5.2 ×10^−5 | 21.0 |  |  | 
6 | CCCCCCCC(=O)N1CCC[C@H]1C(=O)N[C@@H](CC1CCCCC1)C(=O)NC(C)(C)C(=O)NC(C)(C)C(=O)N[C@H](C(=O)N[C@H](C(=O)NC(C)(C)C(=O)NC(C)(C)C(=O)N[C@@H](C)CN(C)CCO)C(C)C)[C@@H](C)CC [(17)] (Octanoyl-P[Cha][Aib][Aib]IV[Aib][Aib]-{Alaψ(CH2NMeCH2CH2OH)}) | 0.6 | 25.5 ×10^−5 | 8.1 | 0.4 | 5.1 ×10^−5 | 20.0 | 2 | 43.7 ×10^−5 | 31.6 | 0.5 | 5.6 ×10^−5 | 33.5 |  |  | 
7 | CCCCCCCCCC(=O)N1CCC[C@H]1C(=O)N[C@@H](CC1CCCCC1)C(=O)NC(C)(C)C(=O)NC(C)(C)C(=O)N[C@H](C(=O)N[C@H](C(=O)NC(C)(C)C(=O)NC(C)(C)C(=O)N[C@@H](C)CN(C)CCO)C(C)C)[C@@H](C)CC [(18)] (Decanoyl-P[Cha][Aib][Aib]IV[Aib][Aib]-{Alaψ(CH2NMeCH2CH2OH)}) | 0.2 | 22.2 ×10^−5 | 3.3 | 0.2 | 3.3 ×10^−5 | 5.5 | 2.2 | 44.7 ×10^−5 | 41.7 | 0.2 | 3.9 ×10^−5 | 30.0 |  |  | 
8 | CCCCCCCCCCCC(=O)N1CCC[C@H]1C(=O)N[C@@H](CC1CCCCC1)C(=O)NC(C)(C)C(=O)NC(C)(C)C(=O)N[C@H](C(=O)N[C@H](C(=O)NC(C)(C)C(=O)NC(C)(C)C(=O)N[C@@H](C)CN(C)CCO)C(C)C)[C@@H](C)CC [(19)] (Lauroyl-P[Cha][Aib][Aib]IV[Aib][Aib]-{Alaψ(CH2NMeCH2CH2OH)}) | 0.2 | 21.4 ×10^−5 | 4.7 | 0.1 | 1.6 ×10^−5 | 4.6 | 0.8 | 38.9 ×10^−5 | 26.4 | 0.1 | 2.6 ×10^−5 | 18.3 |  |  | 
9 | trichoderin A [(3)] | 0.3 | 21.7 ×10^−5 | 4.7 | 0.4 | 5.4 ×10^−5 | 3.6 | 1.5 | 41.0 ×10^−5 | 28.2 | 0.4 | 4.9 ×10^−5 | 19.6 |  |  | only partially inhibited the proliferation

From article PMC9866366 (Pharmaceutics, 2023)
